{
  "source": "ChEMBL document CHEMBL5465560",
  "about": "“Selectivity Literature for EUbOPEN Chemogenomic Library” (2024)",
  "key": {"[1]": {"molecular_target": "Dual specificity tyrosine-phosphorylation-regulated kinase 1A (Homo sapiens, UniProt Q13627)", "assay": "Selectivity interaction (KinomeScan (DiscoverX)) EUB0001550a DYRK1A", "details": "at 1 µM"}, "[2]": {"molecular_target": "Tyrosine-protein kinase HCK (Homo sapiens) (UniProt P08631)", "sequence (P08631 2-526 limits assumed)": "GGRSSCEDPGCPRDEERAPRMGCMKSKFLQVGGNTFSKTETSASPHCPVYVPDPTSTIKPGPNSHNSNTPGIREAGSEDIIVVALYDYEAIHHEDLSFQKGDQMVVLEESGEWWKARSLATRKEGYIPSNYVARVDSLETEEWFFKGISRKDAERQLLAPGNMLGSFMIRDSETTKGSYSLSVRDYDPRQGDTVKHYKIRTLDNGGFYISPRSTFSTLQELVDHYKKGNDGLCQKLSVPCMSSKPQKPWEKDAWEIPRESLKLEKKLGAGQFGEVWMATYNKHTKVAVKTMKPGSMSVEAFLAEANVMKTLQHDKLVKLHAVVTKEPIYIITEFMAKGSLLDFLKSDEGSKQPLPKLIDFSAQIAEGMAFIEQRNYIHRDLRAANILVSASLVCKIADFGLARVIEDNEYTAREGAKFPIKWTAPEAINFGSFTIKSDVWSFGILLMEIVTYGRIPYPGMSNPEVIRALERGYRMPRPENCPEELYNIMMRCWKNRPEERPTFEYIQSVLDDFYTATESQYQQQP", "assay": "Selectivity interaction (Upstate Kinase Profiler service (Millipore)) EUB0000056c HCK", "details": "at 1 µM"}, "[3]": {"molecular_target": "Mitogen-activated protein kinase 11 (Homo sapiens) (UniProt Q15759)", "sequence (Q15759 whole entry)": "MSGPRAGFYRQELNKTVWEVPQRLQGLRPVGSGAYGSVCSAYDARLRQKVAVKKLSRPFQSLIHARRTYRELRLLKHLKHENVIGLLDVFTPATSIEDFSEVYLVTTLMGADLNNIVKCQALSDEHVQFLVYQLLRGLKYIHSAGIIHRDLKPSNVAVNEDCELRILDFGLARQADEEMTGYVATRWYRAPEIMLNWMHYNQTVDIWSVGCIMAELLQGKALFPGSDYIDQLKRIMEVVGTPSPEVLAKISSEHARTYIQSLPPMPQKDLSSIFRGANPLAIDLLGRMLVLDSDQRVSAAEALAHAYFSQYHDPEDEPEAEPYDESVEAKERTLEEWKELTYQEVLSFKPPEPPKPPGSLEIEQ", "assay": "Selectivity interaction (ProQinase) EUB0000171b MAPK11"}, "[4]": {"molecular_target": "T1, Cytoplasmic tyrosine-protein kinase BMX (Homo sapiens) (UniProt P51813)", "T1 sequence (whole entry)": "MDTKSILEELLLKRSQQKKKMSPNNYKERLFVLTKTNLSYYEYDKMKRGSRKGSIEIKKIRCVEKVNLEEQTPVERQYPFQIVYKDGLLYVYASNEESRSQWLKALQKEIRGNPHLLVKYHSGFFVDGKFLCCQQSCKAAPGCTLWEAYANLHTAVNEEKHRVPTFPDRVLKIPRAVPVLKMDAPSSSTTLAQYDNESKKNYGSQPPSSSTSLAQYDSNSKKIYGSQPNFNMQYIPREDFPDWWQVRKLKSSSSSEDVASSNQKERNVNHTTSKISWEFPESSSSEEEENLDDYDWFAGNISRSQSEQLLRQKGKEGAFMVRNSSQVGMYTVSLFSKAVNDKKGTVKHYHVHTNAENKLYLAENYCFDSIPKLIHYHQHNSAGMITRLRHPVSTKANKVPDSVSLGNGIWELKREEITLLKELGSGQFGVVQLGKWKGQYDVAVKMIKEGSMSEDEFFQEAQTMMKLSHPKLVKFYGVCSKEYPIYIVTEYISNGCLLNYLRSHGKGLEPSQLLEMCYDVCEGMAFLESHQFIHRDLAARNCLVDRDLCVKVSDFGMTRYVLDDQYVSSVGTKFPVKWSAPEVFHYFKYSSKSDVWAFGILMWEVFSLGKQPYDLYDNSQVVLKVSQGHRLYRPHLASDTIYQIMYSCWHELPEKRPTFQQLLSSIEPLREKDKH", "assay": "Selectivity interaction (KinomeScan (DiscoverX)) EUB0001079a BMX", "details": "at 1 µM"}, "[5]": {"molecular_target": "Ribosomal protein S6 kinase alpha-5 (Homo sapiens) (UniProt O75582)", "sequence (O75582 whole entry, looked up)": "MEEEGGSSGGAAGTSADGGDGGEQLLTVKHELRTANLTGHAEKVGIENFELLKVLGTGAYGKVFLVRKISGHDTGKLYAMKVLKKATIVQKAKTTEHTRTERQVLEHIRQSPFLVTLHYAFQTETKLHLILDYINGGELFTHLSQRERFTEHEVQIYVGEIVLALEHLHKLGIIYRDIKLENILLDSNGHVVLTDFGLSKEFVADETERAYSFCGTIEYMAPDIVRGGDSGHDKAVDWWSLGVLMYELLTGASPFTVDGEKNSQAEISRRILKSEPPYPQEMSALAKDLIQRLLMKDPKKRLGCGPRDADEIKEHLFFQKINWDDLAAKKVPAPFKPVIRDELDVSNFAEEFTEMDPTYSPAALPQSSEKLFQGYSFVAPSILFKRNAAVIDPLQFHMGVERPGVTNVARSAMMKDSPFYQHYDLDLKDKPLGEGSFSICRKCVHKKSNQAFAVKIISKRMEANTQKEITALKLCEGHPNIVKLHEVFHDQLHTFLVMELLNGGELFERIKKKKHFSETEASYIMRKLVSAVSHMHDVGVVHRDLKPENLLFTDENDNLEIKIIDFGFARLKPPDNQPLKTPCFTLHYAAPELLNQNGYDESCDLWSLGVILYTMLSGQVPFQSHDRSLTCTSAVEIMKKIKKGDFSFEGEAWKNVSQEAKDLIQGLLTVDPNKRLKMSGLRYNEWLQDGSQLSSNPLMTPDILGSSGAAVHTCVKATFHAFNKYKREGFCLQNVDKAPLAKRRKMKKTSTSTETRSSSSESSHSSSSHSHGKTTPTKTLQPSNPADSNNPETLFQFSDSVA", "details": "at 10 µM"}, "[6]": {"molecular_target": "cAMP-dependent protein kinase catalytic subunit beta (Homo sapiens) (UniProt P22694)", "details": "at 10 µM"}, "[7]": {"molecular_target": "Phosphatidylinositol 4-kinase alpha (Homo sapiens, UniProt P42356)", "assay": "Selectivity interaction (Adapta Assay) EUB0001632a PI4KA", "details": "at 10 µM"}, "[8]": {"molecular_target": "Tyrosine-protein kinase Fgr (Homo sapiens) (UniProt P09769)", "assay": "Selectivity interaction (Kinase panel (Invitrogen)) EUB0000639a FGR", "details": "at 200 nM"}, "[9]": {"molecular_target": "Serine/threonine-protein kinase 16 (Homo sapiens, UniProt O75716)", "sequence (O75716 whole entry)": "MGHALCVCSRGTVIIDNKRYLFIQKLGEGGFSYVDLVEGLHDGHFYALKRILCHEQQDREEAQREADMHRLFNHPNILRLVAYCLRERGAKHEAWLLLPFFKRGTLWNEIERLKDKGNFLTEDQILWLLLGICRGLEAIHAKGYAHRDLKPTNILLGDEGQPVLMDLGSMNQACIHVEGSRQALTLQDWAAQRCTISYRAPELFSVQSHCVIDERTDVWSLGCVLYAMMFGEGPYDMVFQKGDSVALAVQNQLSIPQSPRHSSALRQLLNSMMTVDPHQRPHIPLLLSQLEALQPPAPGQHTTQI", "assay": "Selectivity interaction (ActivX KiNativ screen (kinase selectivity in THP-1 cell lysates)) EUB0000639a STK16", "type": "subcellular", "details": "lysate, at 5 µM"}, "[10]": {"molecular_target": "STE20-like serine/threonine-protein kinase (Homo sapiens, UniProt Q9H2G2)", "sequence (Q9H2G2 whole entry, looked up)": "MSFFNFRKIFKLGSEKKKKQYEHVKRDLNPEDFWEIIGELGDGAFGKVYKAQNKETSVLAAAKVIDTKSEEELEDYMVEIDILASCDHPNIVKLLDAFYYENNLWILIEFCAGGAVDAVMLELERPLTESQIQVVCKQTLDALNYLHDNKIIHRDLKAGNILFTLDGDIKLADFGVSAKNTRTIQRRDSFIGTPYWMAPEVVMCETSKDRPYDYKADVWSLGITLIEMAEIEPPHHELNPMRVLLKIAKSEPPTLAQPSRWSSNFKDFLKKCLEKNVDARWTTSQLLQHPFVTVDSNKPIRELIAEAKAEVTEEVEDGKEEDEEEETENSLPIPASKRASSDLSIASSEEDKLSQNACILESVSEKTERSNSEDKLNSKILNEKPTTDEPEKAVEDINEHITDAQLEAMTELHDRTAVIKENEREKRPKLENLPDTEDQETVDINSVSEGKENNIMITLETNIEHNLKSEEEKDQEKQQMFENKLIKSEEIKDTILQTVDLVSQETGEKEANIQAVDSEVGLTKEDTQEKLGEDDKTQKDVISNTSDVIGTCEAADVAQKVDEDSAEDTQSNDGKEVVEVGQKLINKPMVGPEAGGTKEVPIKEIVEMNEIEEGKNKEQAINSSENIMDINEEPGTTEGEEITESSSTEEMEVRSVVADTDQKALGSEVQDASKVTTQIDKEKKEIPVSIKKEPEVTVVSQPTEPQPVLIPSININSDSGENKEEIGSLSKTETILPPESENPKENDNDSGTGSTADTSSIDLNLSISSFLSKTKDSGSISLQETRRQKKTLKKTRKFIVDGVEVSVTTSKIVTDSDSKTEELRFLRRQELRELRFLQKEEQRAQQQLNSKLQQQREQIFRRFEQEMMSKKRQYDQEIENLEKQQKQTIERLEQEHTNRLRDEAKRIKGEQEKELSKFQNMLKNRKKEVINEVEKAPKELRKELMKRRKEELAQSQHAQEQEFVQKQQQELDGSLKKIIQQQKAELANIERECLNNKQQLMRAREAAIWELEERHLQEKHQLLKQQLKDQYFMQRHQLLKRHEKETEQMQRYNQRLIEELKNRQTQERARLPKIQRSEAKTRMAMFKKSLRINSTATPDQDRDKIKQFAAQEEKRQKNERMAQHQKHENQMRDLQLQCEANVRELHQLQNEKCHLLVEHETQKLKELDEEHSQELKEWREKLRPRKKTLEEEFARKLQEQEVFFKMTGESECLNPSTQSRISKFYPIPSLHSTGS", "assay": "Selectivity interaction (KinomeScan (DiscoverX)) EUB0000607a SLK", "details": "at 10 µM"}, "SRSF protein kinase 1": {"molecular_target": "SRSF protein kinase 1 (Homo sapiens, UniProt Q96SB4)", "assay": "Selectivity interaction (KinomeScan (DiscoverX)) EUB0000607a SRPK1", "details": "at 10 µM"}, "[11]": {"molecular_target": "Mitogen-activated protein kinase kinase kinase 9 (Homo sapiens) (UniProt P80192)", "assay": "Selectivity interaction (KinomeScan (DiscoverX)) EUB0000595a MAP3K9", "details": "at 10 µM"}, "[12]": {"molecular_target": "T2, Serine/threonine-protein kinase 3 (Homo sapiens) (UniProt Q13188)", "T2 sequence (whole entry)": "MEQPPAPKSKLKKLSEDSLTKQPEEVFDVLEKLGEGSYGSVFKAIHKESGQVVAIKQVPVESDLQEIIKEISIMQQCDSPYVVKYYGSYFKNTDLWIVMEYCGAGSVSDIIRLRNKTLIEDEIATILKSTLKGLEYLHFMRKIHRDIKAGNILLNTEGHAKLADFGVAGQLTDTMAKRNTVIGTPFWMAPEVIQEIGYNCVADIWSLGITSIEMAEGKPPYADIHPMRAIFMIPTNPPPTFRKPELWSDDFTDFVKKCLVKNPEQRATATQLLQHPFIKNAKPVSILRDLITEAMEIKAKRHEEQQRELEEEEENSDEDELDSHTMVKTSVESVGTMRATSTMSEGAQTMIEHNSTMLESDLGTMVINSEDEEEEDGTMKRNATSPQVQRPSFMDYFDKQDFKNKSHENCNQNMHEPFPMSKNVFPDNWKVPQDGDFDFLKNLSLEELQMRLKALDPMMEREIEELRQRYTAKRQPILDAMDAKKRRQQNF", "assay": "Selectivity interaction (KinomeScan (DiscoverX)) EUB0000045b STK3"}, "[13]": {"molecular_target": "Receptor-interacting serine/threonine-protein kinase 2 (Homo sapiens, UniProt O43353)", "sequence (O43353 whole entry)": "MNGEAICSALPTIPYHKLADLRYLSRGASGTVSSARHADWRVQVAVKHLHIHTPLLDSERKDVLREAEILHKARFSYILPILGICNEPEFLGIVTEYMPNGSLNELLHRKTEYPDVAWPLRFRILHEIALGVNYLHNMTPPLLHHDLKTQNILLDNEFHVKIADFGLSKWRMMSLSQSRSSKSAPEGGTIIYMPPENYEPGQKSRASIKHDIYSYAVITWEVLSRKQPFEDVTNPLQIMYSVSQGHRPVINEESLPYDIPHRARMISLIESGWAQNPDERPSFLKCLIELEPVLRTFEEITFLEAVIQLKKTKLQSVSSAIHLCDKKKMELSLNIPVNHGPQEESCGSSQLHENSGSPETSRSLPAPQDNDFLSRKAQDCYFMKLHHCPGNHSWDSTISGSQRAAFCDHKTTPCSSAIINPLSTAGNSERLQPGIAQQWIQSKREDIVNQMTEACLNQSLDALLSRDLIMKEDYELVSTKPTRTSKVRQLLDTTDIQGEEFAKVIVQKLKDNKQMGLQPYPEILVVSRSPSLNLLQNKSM", "assay": "Selectivity interaction (KinomeScan (DiscoverX)) EUB0000045b RIPK2"}, "Histamine H1 receptor": {"molecular_target": "Histamine H1 receptor (Homo sapiens, UniProt P35367)", "sequence (P35367 whole entry)": "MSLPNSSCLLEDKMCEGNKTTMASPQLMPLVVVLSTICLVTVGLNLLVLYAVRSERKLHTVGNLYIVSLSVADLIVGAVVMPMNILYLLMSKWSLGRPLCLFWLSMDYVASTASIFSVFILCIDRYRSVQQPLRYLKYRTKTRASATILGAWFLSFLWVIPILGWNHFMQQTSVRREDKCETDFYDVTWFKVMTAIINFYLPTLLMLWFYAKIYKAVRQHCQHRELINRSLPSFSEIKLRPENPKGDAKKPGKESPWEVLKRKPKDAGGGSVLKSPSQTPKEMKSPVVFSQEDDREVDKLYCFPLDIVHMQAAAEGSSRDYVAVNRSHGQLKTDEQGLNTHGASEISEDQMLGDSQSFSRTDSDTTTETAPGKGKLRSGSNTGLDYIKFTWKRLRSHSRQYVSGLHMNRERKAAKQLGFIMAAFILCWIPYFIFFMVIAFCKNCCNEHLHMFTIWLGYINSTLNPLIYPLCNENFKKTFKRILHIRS", "assay": "Selectivity interaction (Eurofins CEREP Diversity Profile (receptors and ion channels)) EUB0000279b HRH1", "details": "at 10 µM"}, "[14]": {"molecular_target": "Ribosomal protein S6 kinase beta-2 (Homo sapiens) (UniProt Q9UBS0)", "sequence (Q9UBS0 whole entry)": "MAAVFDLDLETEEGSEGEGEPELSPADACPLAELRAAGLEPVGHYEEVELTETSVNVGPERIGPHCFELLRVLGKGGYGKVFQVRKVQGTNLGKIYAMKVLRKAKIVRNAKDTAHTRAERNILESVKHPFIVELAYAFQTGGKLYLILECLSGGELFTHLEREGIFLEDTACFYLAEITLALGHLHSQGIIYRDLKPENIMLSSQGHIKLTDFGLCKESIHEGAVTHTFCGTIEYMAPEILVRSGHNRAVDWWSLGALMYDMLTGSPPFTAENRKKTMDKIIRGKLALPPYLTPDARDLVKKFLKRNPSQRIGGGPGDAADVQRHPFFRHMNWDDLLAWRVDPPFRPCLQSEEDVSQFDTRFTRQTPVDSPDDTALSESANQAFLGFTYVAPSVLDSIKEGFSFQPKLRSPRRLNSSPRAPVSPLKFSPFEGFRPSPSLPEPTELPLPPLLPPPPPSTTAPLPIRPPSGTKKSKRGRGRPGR", "assay": "Selectivity interaction (ActivX KiNativ screen (ex vivo kinase selectivity in human PBMCs)) EUB0001619a RPS6KB2", "type": "cell-based", "details": "PBMC, at 1 µM"}},
  "data": [
    {"smiles": "CN(C)CC#Cc1ccc2[nH]c3c(c2c1)-c1nc(N)ncc1CCC3", "values": [
      {"measurement": "% of control", "setting": "[1]", "result": 9.9, "unit": "%"}
    ]},
    {"smiles": "Cc1ccc(-c2ccc3c(ccc4sc5c(c43)NC[C@@H](C)NC5=O)n2)cn1", "values": [
      {"measurement": "% of inhibition", "setting": "[2]", "result": 46, "unit": "%"}
    ]},
    {"smiles": "C=CC(=O)Nc1cccc(C(=O)Nc2ccc(Nc3cc(-c4[nH]c(SC)nc4C)ccn3)cc2)c1", "values": [
      {"measurement": "% of control", "setting": "[3]; at 1 µM", "result": 93, "unit": "%"},
      {"measurement": "% of control", "setting": "[3]; at 5 µM", "result": 75, "unit": "%"}
    ]},
    {"smiles": "Nc1cnc(N2CCc3cc(S(=O)(=O)Nc4c(F)cc(Cl)cc4F)cc(N4CCCC4=O)c32)nc1", "note": "[TP-020n]", "values": [
      {"measurement": "% of control", "setting": "[4]", "result": 100, "unit": "%"}
    ]},
    {"smiles": "Cc1cc([C@@H](C)Nc2ccccc2C(=O)O)c2nc(N3CCOCC3)cc(=O)n2c1", "note": "[AZD-6482]", "values": [
      {"measurement": "% of control", "setting": "[5]", "result": 81, "unit": "%"},
      {"measurement": "% of control", "setting": "[6]", "result": 100, "unit": "%"}
    ]},
    {"smiles": "Cn1cc(-n2cnc3c(NCc4nc5cc(Cl)c(Cl)cc5[nH]4)nc(N4CCOCC4)nc32)cn1", "values": [
      {"measurement": "% of inhibition", "setting": "[7]", "result": -3.32, "unit": "%"}
    ]},
    {"smiles": "CC[C@@H]1[C@H](F)C(=O)N[C@@H]1COc1nccc2cc(C(N)=O)c(OC)cc12", "note": "[ZIMLOVISERTIB]", "values": [
      {"measurement": "% of inhibition", "setting": "[8]", "result": 8.5, "unit": "%"},
      {"measurement": "% of inhibition", "setting": "[9]", "result": 81.9, "unit": "%"}
    ]},
    {"smiles": "CNC(=O)Nc1ccc(-c2nc(N3CC4CCC(C3)O4)c3cnn(C4CCC5(CC4)OCCO5)c3n2)cc1", "values": [
      {"measurement": "% of control", "setting": "[10]", "result": 100, "unit": "%"},
      {"measurement": "% of control", "setting": "SRSF protein kinase 1", "result": 100, "unit": "%"}
    ]},
    {"smiles": "COCC(=O)NC/C=C/c1ccc2ncnc(Nc3ccc(Oc4ccc(C)nc4)c(C)c3)c2c1", "note": "[CP-724714]", "values": [
      {"measurement": "% of control", "setting": "[11]", "result": 74, "unit": "%"}
    ]},
    {"smiles": "C=CC(=O)Nc1cc(-n2c(=O)ccc3cnc4ccc(-c5ccc(NS(C)(=O)=O)cc5)cc4c32)ccc1C", "values": [
      {"measurement": "% of control", "setting": "[12]; at 1 µM", "result": 62, "unit": "%"},
      {"measurement": "% of control", "setting": "[12]; at 10 µM", "result": 95, "unit": "%"},
      {"measurement": "% of control", "setting": "[13]; at 1 µM", "result": 100, "unit": "%"},
      {"measurement": "% of control", "setting": "[13]; at 10 µM", "result": 92, "unit": "%"}
    ]},
    {"smiles": "CC(=O)c1cc(-c2ccccc2OCC2CC2)c2ncccn12", "values": [
      {"measurement": "% of control", "setting": "Histamine H1 receptor", "result": 107, "unit": "%"}
    ]},
    {"smiles": "N#Cc1cccc(-c2c[nH]c3ncnc(N4CCOCC4)c23)c1", "values": [
      {"measurement": "% of inhibition", "setting": "[14]", "result": 19, "unit": "%"}
    ]}
  ]
}
